Regarding `CCCn1nc(-c2ccc(OC)cc2)cc(C(=O)NC)c1=O`, the melting point was 106 to 107 °C. In turn, `CCOC(=O)C(=O)Nc1ccc(Cl)c(C(F)(F)F)c1` displayed a melting point of 128 to 130 °C. In the case of `CC1CCC(NS(=O)(=O)NC(=O)OCc2ccccc2)CC1` (stereo not drawn), the melting point lay in the range of 153 to 155 °C. As to `CCCCOCCCNC(=O)C(C)(C(C)C)C(C)C`, the melting point was determined as 40 °C. As for `CCN1CCCC(NC(=O)c2ccccc2Nc2ccnc3cc(Cl)ccc23)C1` (stereo not drawn), the figure is 187 to 188 °C; as for `CN(Cc1ccccc1)C(=O)Nc1cc(C(C)(C)C)on1`, 107 to 108 °C; as for `CC(C)Oc1ccc(C(=O)c2[nH]c3cc(Cl)ccc3c2CC(=O)O)cc1`, 216 to 218 °C. As for `N#CCCNC(=O)c1ccnc(-c2cccc3oc(Cc4cccc(C(F)(F)F)c4)cc23)c1`, the figure is 114 to 115 °C; as for `CC1CC(=O)NN=C1c1ccc2c(c1)N(CC(=O)N1CCN(CCO)CC1)CS2=O` (stereo not drawn), 231 to 233 °C; as for `CN1Cc2c(-c3noc(CN)n3)ncn2-c2ccccc2C1=O`, 192 to 195 °C. Consider `CSc1nnc2c3cnn(C)c3ncn12`, for which the melting point fell in the range of 204 to 206 °C. In turn, `O=C(NC(CCl)c1ccc(-c2ccc(S(=O)(=O)C(F)F)cc2)cc1)c1c(F)cccc1F` (stereo not drawn) showed a melting point of 146 to 149 °C.

With `CC(C)(C)c1coc2c(-c3ccc(F)cc3)c(-c3ccc(S(C)(=O)=O)cc3)nn12`, the melting point is 181 to 182 °C. `COc1cc(/C=C/c2cc(/C=C/c3ccc4cc[nH]c4c3)n[nH]2)ccc1OCc1ccccn1` showed a melting point of 236 to 243 °C. Take `Cc1c(Br)c(C)c2c(C)coc2c1Cc1ccc(C(C)C)cc1`: the melting point fell in the range of 76 to 77 °C. `COc1cc(C)ccc1Oc1ccc(C=O)cc1C#N` had a melting point of 112 to 113 °C. As to `O=C(c1ccccc1)c1cnn2c(-c3cccc(N4CCCCC4=O)c3)ccnc12`, the melting point is 160 to 162 °C. `[N-]=[N+]=NCC(O)COc1ccc(-c2ccccc2)cc1` (stereo not drawn) displayed a melting point of 72.2 to 73.9 °C. The molecule `Cc1cccc(-c2nc3cccnn3c2-c2ccnc(N)c2)c1` had a melting point of 188 to 189 °C. Molecule `COc1ccc(S(=O)(=O)N2C(=O)C(c3ccccc3OC)(N3Cc4ccccc4C[C@H]3C(=O)N(C)C)c3cc(Cl)c(C)cc32)c(OC)c1` (stereo partly drawn) had a melting point of 160 °C.

For `CSc1nccn1-c1cccc(C2=Nc3cc(O)c(-c4ccccc4F)cc3NC(=O)C2)c1`, the melting point is greater than 250 °C.

Take `CCOCC(=O)OCC(=O)C1(O)CCC2C3CC(C)C4=CC(=O)C=CC4(C)C3C(O)CC21C` (stereo not drawn): the melting point was found to be 229 °C. Take `CC1=C(O)CCC(C)(C)C1=O`: the melting point lay in the range of 112 to 114 °C. Regarding `Cc1ccccc1C(=O)N(CN(C)C)c1ccc(C(=O)N2Cc3ccccc3Cc3ccccc32)cc1`, the melting point is 131 to 133 °C. For `NC(=O)[C@H]1[C@H](CS)N(Cc2ccccc2)C(=O)N1Cc1ccccc1`, the melting point is 119 to 122 °C. In the case of `COc1ccc(C(=O)C2=C(O)C(=O)N(c3nnc(C)s3)C2c2ccc(OC(F)(F)F)cc2)cc1` (stereo not drawn), the melting point lay in the range of 245 to 247 °C. The same measure for `CCC(Br)C(=O)c1ccc(OC)c(OC(F)F)c1` (stereo not drawn): 105 °C. Turning to `Nc1ncnc2c1ncn2C[C@@H](CF)OCP(=O)(O)O`, the melting point was in the range of 194 to 197 °C. For the molecule `CCOC(=O)Cc1c(C(=O)OCC)c(O)c(C(=O)c2ccc(Cl)cc2)n1C`, the melting point lay in the range of 145 to 147 °C. For `O=C(c1cccc2cc[nH]c12)N1CCN(c2cccc(C(F)(F)F)c2)CC1`, the melting point is 147 to 151 °C. `O=C(N[C@H](Cc1ccc(F)cc1)[C@@H](O)c1ccc(C(F)(F)F)cc1)c1cccc2ccccc12` (racemic) registered a melting point of 207 to 208 °C. For `COC(=O)c1ccc([C@H]2CC[C@H](C3OCCO3)CC2)cc1`, the melting point was 110 to 111 °C. As for `CCOc1c(NC(C)(C)C)c(=O)c1=O`, the figure is 80 to 82 °C. `CC(=O)NC12CC3(C)CC(C)(CC(O)(C3)C1)C2` had a melting point of 194 to 195 °C.

In the case of `COc1ccc(C=Cc2nnc(CCl)o2)cc1`, the melting point fell in the range of 139 to 141 °C.

As for `O=C(OCc1ccccc1)c1ccc(N2CCOCC2)cc1`, the melting point lay in the range of 85 to 86 °C. The same measure for `Cc1cc(=O)[nH]c2nc(OCCCCN3CCN(c4cccc(Cl)c4Cl)CC3)ccc12`: 181 to 182 °C; for `FC(F)(F)c1ccccc1NCC1=NNCCN1`: 97 to 98 °C; for `O=C(CCCSc1ccccc1)N1C(=O)OCC1Cc1ccccc1` (stereo not drawn): 84 to 85 °C. The molecule `Cc1csc(-c2cc(C)cn2-c2ccc(S(N)(=O)=O)cc2)c1` registered a melting point of 172 to 173 °C. Regarding `CC1(C)CCC2(C(=O)O)CCC3(C)C(=CCC4C5(C)CC(O)C(O)C(C)(CO)C5CCC43C)C2C1O` (stereo not drawn), the melting point lay within 220 to 222 °C. The same measure for `O=C(NCCO)c1cccc(-c2cccc3nn(Cc4ccc(F)cc4)cc23)c1`: 137 to 138 °C.

In turn, `O=C(Nc1ccc(C(F)(F)F)cc1)Nc1ccc(S(=O)(=O)NCCN2CCOCC2)cc1` had a melting point of 62 to 65 °C. `CCNC(=O)c1c(Cl)cccc1[Si](C)(C)C1CCCCC1` returned a melting point of 111 to 113 °C. Consider `COc1cc(OC(C)C(=O)O)c2c3c(C(N)=O)cccc3n(Cc3ccccc3)c2c1` (stereo not drawn), for which the melting point was 170 to 172 °C. Regarding `O=C(O)c1cc(Cl)cc2c1NC(c1ccccc1)CC2` (stereo not drawn), the melting point lay in the range of 199 to 200 °C.

`CS(=O)(=O)c1ccc2c([N+](=O)[O-])cc3c(c2c1)C(CCl)CN3` (stereo not drawn): the melting point was in the range of 193 to 194 °C. Take `COC(=O)CCCC#Cc1cc(Cl)ccc1NS(=O)(=O)c1ccc2sc(C)nc2c1`: the melting point lay in the range of 68 to 72 °C.

For `CCn1c(=O)n(C)c(=O)c2c(C(=O)N3C[C@](C)(O)CO3)c(Cn3c(C)nc(Cl)c3Cl)sc21`, the melting point is 130 to 133 °C. As for `C=CC(=O)Nc1cccc(OC(=O)NCCCCCCCCCCCCCCCCCC)c1`, the figure is 124 to 126 °C; as for `COC(=O)COc1cccc2c1S[C@@H](c1ccc(OC)cc1)[C@@H](O)C(=O)N2CCN(C)C` (racemic), 152 to 160 °C. Take `COc1ccc(COc2cccc3cc(NS(=O)(=O)C(F)(F)F)ccc23)cc1Cl`: the melting point fell in the range of 129 to 130 °C. The molecule `O=[N+]([O-])c1ccccc1OCc1csc(-c2ccccc2)n1` yielded a melting point of 95 °C.

Molecule `CC(=O)N1N=C(c2ccc([N+](=O)[O-])cc2)c2ccc(Cl)cc2CC1C` (stereo not drawn) displayed a melting point of 174 to 175 °C. In the case of `COC(=O)Cc1sc(N=C2SC[C@@H]3Cc4ccccc4CN23)nc1C`, the melting point came out at 66 °C. Molecule `Cc1[nH]c(=O)[nH]c(=O)c1[N+](=O)[O-]` returned a melting point of 281 °C. As for `C=CCOC(=O)c1cccc(NC(=O)NCNC(=O)c2ccccc2C(=O)c2ccccc2)c1`, the figure is 68 to 71 °C; as for `O=C(Nc1ccccc1)Nc1ccnc(F)c1`, 179 to 180 °C; as for `O=C(NCc1cccnc1)Nc1ccc([N+](=O)[O-])cc1`, 220 to 222 °C. Turning to `O=C(Nc1cc(-c2ccc(-c3ccccc3)cc2)on1)c1c(Cl)cccc1Cl`, the melting point was in the range of 256 to 259 °C.

Molecule `O=C1NCCc2ccc(OCCCCN3CCC(c4cccc(Cl)c4Cl)CC3)cc21` registered a melting point of 113 to 114 °C. Regarding `CCOC(CC)=NS(=O)(=O)c1nc(-c2ccccc2)ns1`, the melting point lay in the range of 98 to 100 °C. As for `CC(=O)c1ccc2c(c1)C(C(=O)Nc1cccc(C(=O)Nc3ccccc3)c1)C(=O)N2C` (stereo not drawn), the figure is 178 to 179 °C; as for `CC1CCc2ccc(OCC3CO3)cc2O1` (stereo not drawn), 67 to 69 °C; as for `CCN(CC)CC(O)CSCC(=O)O` (stereo not drawn), 104 °C. For the molecule `CC(=O)N(C)c1cccc(-c2ccc3nncn3n2)c1`, the melting point was in the range of 166 to 169 °C. The molecule `CCCCOc1ccc(S(=O)(=O)N2CC(NC[C@H](O)COc3ccc(O)cc3)C2)cc1` registered a melting point of 55 to 58 °C.

Molecule `O=C(O)Cn1nc(-c2ccccc2O)nc1-c1ccccc1O` yielded a melting point of 231 to 233 °C. In the case of `O=C1CCc2cc(OCc3ccccc3)c(O)c([N+](=O)[O-])c21`, the melting point lay in the range of 252 to 254 °C. With `O=C(Nc1ccc(N2CCOCC2=O)cc1)[C@H]1C=CCN1C(=O)Nc1ccc(Cl)cc1`, the melting point came to 245 °C. Consider `CN(C)CC1CCn2c(c(C3=C(c4csc5ccccc45)C(=O)NC3=O)c3ccccc32)C1` (stereo not drawn), for which the melting point fell in the range of 285 to 286 °C. `COc1cc(Br)cc2c(Cl)cc(C)nc12`: the melting point lay within 140 to 142 °C. As for `COc1cncc(-c2ccc(OC3SCC(O)C(O)C3O)cn2)c1` (stereo not drawn), the figure is 193 °C; as for `CC(C)(C)OC(=O)N1CCC(NC(=O)c2ccc(Cn3cccn3)cc2)CC1`, 168 to 169 °C. Take `CC(C)(C)C(=O)OCC(COC(=O)C(C)(C)C)OCn1cnc2c(=O)[nH]c(N)nc21`: the melting point was 230 to 232 °C. Turning to `Fc1cnc(Nc2nc3c(s2)CCN(CCCN2CCOCC2)c2n[nH]cc2-3)nc1`, the melting point lay within 251 to 254 °C. With `COC(=O)CCSc1scnc1C(=O)O`, the melting point lay within 112 to 116 °C.

In turn, `CCCCC(=O)c1ccc(C(=O)Nc2ccc3cc(CN4CCCC4)cnc3c2C)cc1` registered a melting point of 180 °C.

For `CC(C)(O)Cn1cnc2cnc3ccccc3c21`, the melting point fell in the range of 169 to 170 °C. `O=C(Nc1nccs1)C(CC1CCCC1)c1ccc(NS(=O)(=O)C(F)(F)F)cc1` (stereo not drawn) had a melting point of 70 to 74 °C. Take `N#Cc1cc(C2=Nc3ccc(-n4cccc4)cc3NC(=O)C2)ccn1`: the melting point lay within 243 to 244 °C. `Nc1cc2c(Nc3ccc(F)c(Cl)c3)ncnc2cc1OCC1CCCO1` (stereo not drawn): the melting point lay in the range of 162 to 164 °C. Regarding `CCCCOc1ccc(CCCOc2nn(CC)cc2CC(=O)O)c(Oc2ccc(C(F)(F)F)cn2)c1`, the melting point lay in the range of 81 to 82 °C. The molecule `CC(C)(C)c1cc(-c2cncn2CCCO)cc(C(C)(C)C)c1O` had a melting point of 166 to 167 °C. The molecule `CC(C)(C)C1=NN(c2ccc(S(=O)(=O)O)cc2)C(c2ccc(F)cc2)C1` (stereo not drawn) yielded a melting point of 92.9 °C. The same measure for `FC(F)(F)c1ccc(-c2[nH]c(=S)[nH]c2-c2ccc(C(F)(F)F)cc2)cc1`: 312 to 315 °C. The same measure for `Cc1cccc(C(O)c2ccc(N)cc2)n1` (stereo not drawn): 165 to 166 °C. With `COCn1c(-c2nccs2)c(Cl)c2cccc([N+](=O)[O-])c21`, the melting point lay in the range of 106 to 107 °C.
